# Where no end group is shown, it is not given here.
# B1: C-terminal domain: C-terminal domain of S. cristatus arginine deiminase, 208 amino acid portion (protein, listed as Streptococcus cristatus)
# chain: VYNREEDTRIEGGDELVLSKDVLAVGISQRTDAASIEKLLVNIFKKNVGFKKVLAFEFANNRKFMHLDTVFTMVDYDKFTIHPEIEGDLRVYSVTYENEKLKIVEEKGDLAELLAQNLGVEKVHLIRCGGGNIVAAGREQWNDGSNTLTIAPGVVVVYDRNTVTNKILEEYGLRLIKIRGSELVRGRGGPRCMSMPFEREEV
# Key:
# P. gingivalis 33277 [1] = type: cell-based, Porphyromonas gingivalis; conditions: for inhibitory activity on virulence gene expression: lower efficiency than peptide4; for Relative expression level fmA / Relative expression level kgp / Relative expression level mfa1 / Relative expression level pgn0128 / Relative expression level rgpA / Relative expression level rgpA/B: peptide 16 μM in TSB; for Relative expression level fmA: mRNA by real-time PCR relative to absence of peptides = 1 unit, mean of three experiments; for Relative expression level kgp / Relative expression level mfa1 / Relative expression level pgn0128 / Relative expression level rgpA / Relative expression level rgpA/B: mRNA relative to absence of peptides = 1 unit
# Protocol: The half inhibitory concentration (IC50) was measured by conducting three independent experiments to determine mRNA levels of fimA, mfa1, rgpA/B, and kgp in the presence of peptide4 at the concentrations 0, 4, 16, and 64 μM, respectively. The IC50 for each gene was established using a Microsoft Excel program with add-in for curve fitting. Asterisks indicate the statistical significances of IC50 of peptide4 for a specific gene when compared to that for the fimA gene (P<0.05; t test).
# RNA isolation and qPCR. P. gingivalis were homogenized in Trizol Reagent (Invitrogen, Carlsbad, Calif.) and RNA was purified using an RNeasy mini spin column (Qiagen, Valencia, Calif.). RNA samples were digested on-column with RNase-free DNase, and total RNA was tested using an Agilent 2100 Bioanalyzer to ensure the quality of the samples. Amplification reactions consisted of a reverse transcription using a Bio-Rad iScript Reverse Transcription Supermix on a TC-3000 thermal cycler (Techne, Staffordshire, ST15 OSA, UK) and a real-time qRT-PCR analysis using a QuantiTect SYBR Green RT-PCR Kit (Qiagen) on an iCycler MyiQ™ Real-Time PCR detection system (Bio-Rad Laboratories, Inc, Hercules, Calif.) according to the manufacturer's instructions. P. gingivalis 16 S rRNA gene was used as a normalizing gene. The melting curve profile was analyzed to verify a single peak for each sample, which indicated primer specificity. The expression levels of the investigated genes for the test sample were determined relative to the untreated calibrator sample by using the comparative cycle threshold (ΔCT) method. ΔCT was calculated by subtracting the average CT value of the test sample from the average CT value of the calibrator sample, and the value used to calculate the ratio between the two by assuming 100% amplification efficiency.
# Peptide synthesis and activity. Peptides were synthesized by PEPperPRINT and Biomatik (Delaware) and purified with High Performance Liquid Chromatography (HPLC) at 90% purity. Peptides were resuspended in nuclease/proteinase-free PBS, aliquoted, and stored at −20° C. Inhibitory activity of peptides were determined as described (Hajishengallis, G., Darveau, R. P. & Curtis, M. A. The keystone-pathogen hypothesis. Nature reviews. Microbiology 10, 717-725, doi:10.1038/nrmicro2873 (2012)) with slight modification. Peptides were mixed with 5×10^5 cells of P. gingivalis, spotted onto a TSB blood agar plate, and cultured for 60 h anaerobically. The expression levels of fimbrial and gingipain mRNA or proteins were measured using qRT-PCR or western blot analyses.
# P. gingivalis 33277 was grown TSB in the presence or absence of peptide at a concentration 16 μM. Transcript levels were measured by real-time PCR. The mRNA levels of genes are indicated relative to the expression level in the absence of peptides as 1 unit. Results shown are means and standard deviations from three independent experiments. Asterisks indicate the statistical significance of expression levels at least two fold in P. gingivalis grown in TSB with/without peptides (P<0.05; t test).
# [2] = tested on: surface extracts of P. gingivalis 33277; assay: ArcA peptide microarray binding of surface extracts; design: species or system Porphyromonas gingivalis; conditions: portions of ArcA
# Protocol: The five highest peaks are numbered.
# Protein Interaction Screening. Surface extracts of P. gingivalis were collected by sonication (1 min for three times) and centrifugation (13000 g for 30 min) followed by filtration (0.2 μm pore size). Peptide microarray analysis was performed by PEPperPRINT (Heidelberg, Germany). An ArcA microarray was generated with 409 different peptides of ArcA, and each peptide contained 15 amino acids with a peptide-peptide overlap of 14 amino acids. After blocking and washing, the array was incubated with surface extracts (100 μg/ml) isolated from P. gingivalis 33277, the 0806 mutant, or the ragB mutant. P. gingivalis surface proteins bound on the ArcA array were detected using anti-P. gingivalis antibodies and sheep anti-rabbit IgG (H+L) DyLight680. The arrays were analyzed with a LI-COR Odyssey Imaging System.
# HOKs [3] = assay: LDH cytotoxicity assay; type: cell-based, human; conditions: P4 as high as 200 μM, 48 h
# Protocol: (§1) To examine the cytotoxic effects of P4, plasma membrane damage of HOKs was determined by the Pierce LDH Cytotoxicity Assay Kit. HOKs were seeded into a 6-well plate at a density of 1×10^5/well and cultured in Oral Keratinocyte Medium supplemented with antibiotics (100 U/mL penicillin and 100 μg/mL streptomycin) and 10% fetal calf serum at 37° C. in a humidified chamber with 5% CO2 for 24 h. The cells were then incubated with the growth medium supplemented with P4 (50 or 200 μM) for 48 h. The growth medium was collected for an LDH cytotoxicity assay according to the manufacturer's instructions (Thermo Scientific). To measure the effect of P4 on HOK apoptosis, HOKs were harvested and stained with Annexin V-FITC Apoptosis Kit (Invitrogen), which is able to stain both apoptotic cells and dead cells. Flow cytometric analysis was performed to quantitate apoptotic cells and dead cells (annexin V+/PI+).
# HOKs [4] = assay: Annexin V-FITC apoptosis assay (flow cytometry); type: cell-based, human; conditions: P4 as high as 200 μM, 48 h
# Protocol: as §1
# [5] = P4 stability in H2O and PBS (LC-MS/MS); type: physicochemical
# Protocol: Non-proteinogenic amino acids may improve peptide stability.
# (§2) To determine P4 stability in solution, P4 was incubated in H2O, PBS, and whole saliva at 37° C. for 24 h. P4 in each sample was compared using LC-MS/MS analysis. Briefly, 2 μM P4 was injected on C18 nano-clumn and run with 5-20% of 0.1% FA in acetonitrile for 30 min. MS spectra were acquired in a positive mode on Orbitrap LTQ XL (Thermo).
# [6] = P4 stability in whole saliva (LC-MS/MS); type: in vitro ADME
# Protocol: as §2
# [7] = buffer (PBS) and TBS (growth medium of P. gingivalis)
# [8] = P4 stability in whole saliva (LC-MS/MS); type: in vitro ADME; remark: listed apart in the source
# P. gingivalis 33277 [9] = assay: Immunofluorescence/confocal assay of ArcA binding to bacteria; design: species or system Porphyromonas gingivalis; conditions: purified ArcA 50 μg, 10^8 cells
# Protocol: The upper panel presents differential interference contrast (DIC) images showing the location of the bacteria. The red images in the lower panel are the TRITC fluorescence labeling images representing S. cristatus ArcA bound to P. gingivalis 33277 or A. actinomycetemcomitans Y4 that are positively labeled by ArcA specific antibody.
# Confocal microscopy. ArcA (50 μg) was purified from S. cristatus CC5A as described (Teles R, Teles F, Frias-Lopez J, Paster B, Haffajee A. 2013. Lessons learned and unlearned in periodontal microbiology. Periodontal 2000 62: 95-162), mixed with P. gingivalis cells (10^8) in PBS and incubated at room temperature for 1 h. After washing three times with PBS, bacteria-protein complexes were blocked in PBS with 5% BSA for 1 h. ArcA bound to P. gingivalis was detected by staining with rabbit anti-ArcA polyclonal antibody (1:400) and tetramethyl rhodamine isothiocyanate (TRITC, 1:500)-conjugated AffiniPure Goat Anti-Rabbit IgG antibody. Visualization was with a LSM 510 inverted confocal microscope with selected filters (543 nm excitation and 560 nm emission).
# [10] = tested on: P. gingivalis RagB (PGN_0294) and MotA/ToIQ/ExbB proton channel family protein (PGN_0806); assay: Pull-down assay of ArcA-interacting surface proteins; type: binding, Porphyromonas gingivalis; conditions: MS identification
# Protocol: Pull-down assays. To isolate and identify P. gingivalis surface molecule(s) that interacts with ArcA, we performed a pull-down assay. Surface extracts of P. gingivalis were prepared by sonication with a Sonic Dismembrator (Fisher Scientific; output control 8, 20 s×3), and the cell debris were removed by centrifugation followed by filtration (0.2-μm pore size). Surface extracts of 33277 were mixed with purified ArcA on a rotator at room temperature for 1 h, and then added to an ArcA antibody coupled Sepharose 4B column (Sigma-Aldrich). After incubation at room temperature for 1 h, the column was washed three times with PBS containing 0.01% Tween, and proteins were eluted by 0.1 M Glycine pH 2.4. After SDS-PAGE, bands were excised and identified by liquid chromatography-mass spectrometry.
# P. gingivalis = assay: Effect of ArcA domains on fimA expression; type: cell-based, Porphyromonas gingivalis; conditions: domain of ArcA as a whole
# [11] = Arginine deiminase activity of ArcA domain; type: biochemical
molecule,measurement,setting,value
"ELVRGRGGPRCMSMPF (listed as Streptococcus cristatus) [P5, ArcA-derived peptide from residue 389, C-terminal domain]",inhibitory activity on virulence gene expression,P. gingivalis 33277 [1],some inhibitory activity
same,Relative expression level fmA,P. gingivalis 33277 [1],0.97
same,Relative expression level kgp,P. gingivalis 33277 [1],0.96
same,Relative expression level mfa1,P. gingivalis 33277 [1],0.83
same,Relative expression level pgn0128,P. gingivalis 33277 [1],0.91
same,Relative expression level rgpA,P. gingivalis 33277 [1],0.73
same,Relative expression level rgpA/B,P. gingivalis 33277 [1],0.72
same,binding to P. gingivalis surface proteins,[2],demonstrated to bind
"IRGRETKK (listed as Streptococcus cristatus) [P1, ArcA-derived peptide from residue 97, N-terminal domain]",inhibitory activity on virulence gene expression,P. gingivalis 33277 [1],some inhibitory activity
same,Relative expression level fmA,P. gingivalis 33277 [1],0.88
same,Relative expression level kgp,P. gingivalis 33277 [1],1.06
same,Relative expression level mfa1,P. gingivalis 33277 [1],0.85
same,Relative expression level pgn0128,P. gingivalis 33277 [1],0.96
same,Relative expression level rgpA,P. gingivalis 33277 [1],0.86
same,Relative expression level rgpA/B,P. gingivalis 33277 [1],0.89
same,binding to P. gingivalis surface proteins,[2],demonstrated to bind
"NHMFADTRNRE (listed as Streptococcus cristatus) [P2, ArcA-derived peptide from residue 177, N-terminal domain]",inhibitory activity on virulence gene expression,P. gingivalis 33277 [1],some inhibitory activity
same,Relative expression level fmA,P. gingivalis 33277 [1],0.80
same,Relative expression level kgp,P. gingivalis 33277 [1],0.90
same,Relative expression level mfa1,P. gingivalis 33277 [1],0.80
same,Relative expression level pgn0128,P. gingivalis 33277 [1],0.88
same,Relative expression level rgpA,P. gingivalis 33277 [1],0.81
same,Relative expression level rgpA/B,P. gingivalis 33277 [1],0.78
same,binding to P. gingivalis surface proteins,[2],demonstrated to bind
"NIFKKNVGFKK [P4, NIFKKNVGFKK]",cell membrane damage of HOKs (LDH),HOKs [3],did not induce
same,apoptosis of HOKs (annexin V/PI),HOKs [4],did not induce
same,stability at 37° C.,"[5]; 37° C. for 24 h, initial study",stable
same,stability in H2O and PBS,"[5]; 24 h incubation, 37° C.",not affected
same,time P4 can maintain in saliva at certain level,[6]; 37° C.,at least 24 h
same,signal in diluted whole saliva,"[6]; PBS:saliva 1:1, 0, 0.5, 1, 2, 4 and 24 h",gradual reduction
same,Signal Intensity of 331.45 m/z peak,"[6]; Saliva (PBS:saliva 1:1), 0 hour",3.9 × 10^6 ± 3.1 × 10^5
same,Signal Intensity of 331.45 m/z peak,"[6]; Saliva, 0.5 hour, 37° C.",3.6 × 10^6 ± 4.0 × 10^5
same,Signal Intensity of 331.45 m/z peak,"[6]; Saliva, 1 hour, 37° C.",2.4 × 10^6 ± 2.2 × 10^5
same,Signal Intensity of 331.45 m/z peak,"[6]; Saliva, 2 hour, 37° C.",1.7 × 10^6 ± 4.2 × 10^5
same,Signal Intensity of 331.45 m/z peak,"[6]; Saliva, 4 hour, 37° C.",8.8 × 10^5 ± 2.7 × 10^4
same,Signal Intensity of 331.45 m/z peak,"[6]; Saliva, 24 hour, 37° C.",4.2 × 10^5 ± 3.9 × 10^4
same,solubility,[7],can be dissolved
same,Signal Intensity of 331.45 m/z peak,"[8]; Saliva, 48 hour, 37° C.",6.0 × 10^3 ± 4.1 × 10^2
same,signal in diluted whole saliva,[8]; after 48 h,completely diP4eared
"VYNREEDTRIEGGDEL (listed as Streptococcus cristatus) [P3, ArcA-derived peptide from residue 208, C-terminal domain]",inhibitory activity on virulence gene expression,P. gingivalis 33277 [1],some inhibitory activity
same,Relative expression level fmA,P. gingivalis 33277 [1],0.87
same,Relative expression level kgp,P. gingivalis 33277 [1],0.99
same,Relative expression level mfa1,P. gingivalis 33277 [1],0.82
same,Relative expression level pgn0128,P. gingivalis 33277 [1],0.91
same,Relative expression level rgpA,P. gingivalis 33277 [1],0.84
same,Relative expression level rgpA/B,P. gingivalis 33277 [1],0.98
same,binding to P. gingivalis surface proteins,[2],demonstrated to bind
arginine deiminase [ArcA],affinity of ArcA for bacterial cells,P. gingivalis 33277 [9],high affinity
same,interaction with P. gingivalis surface proteins PGN_0294 and PGN_0806,[10],found to interact
B1,effect on fimA expression of P. gingivalis,P. gingivalis,observed to affect
same,deiminase activity,[11],does not have any deiminase activity
